Common to all, as to format: cell-based
Test [1] deals with Cisplatin resistant cell lines. In words: Mean IC50 (MTT assay) on Cisplatin resistant cell lines. On the procedure:
Thus, it can be concluded that the biological activity is mediated by a longer chain (butoxy) at the meta-position, whereas the ortho- and para-positions are more suitable with a shorter chain (ethoxy). To have a further look at the influence of the different ligand systems and substitution patterns, all β-Hydroxydithiocinnamic acid alkyl esters were tested under same conditions as their derived ruthenium(II) complexes (Figure 5B, Supplementary Table S3). […] All ligands are less cytotoxic than Cisplatin itself and therefore the metal(II) center is necessary for the high cytotoxic activity, what is in clear contrast to the literature for O,S-chelating ruthenium(II) or osmium(II) compounds with thiomaltol ligand [48, 71] but confirmed for Ru(II)/Os(II) compounds with N,N-bidentate glycosyl heterocyclic ligands. This is exemplarily shown by the comparison of mean IC50 values for Cisplatin, L14, and Ru14 (Supplementary Figure S8).
Ovarian cancer cell lines were cultured under standard conditions (5% CO2, 37 °C, 90% humidity) in RPMI medium supplemented with 10% FCS, 100 U/mL penicillin and 100 µg/mL streptomycin (Life Technologies, Dreieich, Germany). Cisplatin (Sigma, Taufkirchen, Germany) was freshly dissolved at 1 mg/mL in 0.9% NaCl solution and diluted appropriately. New ruthenium(II) complexes and ligands were dissolved in dmso. Platinum-resistant A2780 and SKOV3 cells were established by repeated rounds of 3-day incubations with increasing amounts of Cisplatin starting with 0.1 µM. The concentration was doubled after 3 incubations, interrupted by recovery phases with normal medium. […] Determinations of IC50 values were carried out using the CellTiter96 non-radioactive proliferation assay (MTT assay, Promega, Mannheim, Germany). After seeding 5000 cells per well in a 96-well plate, cells were allowed to attach for 24 h and were incubated for 48 h with different concentrations of the substances ranging from 0 to 500 µM for Ruthenium and 0 to 1000 µM for ligand tests (0, 1, 10, 50, 100, 500, 1000 µm), for Cisplatin from 0 to 100 µM (0.1, 1, 5, 10, 50, 100 µM). Each measurement was done in triplicate and repeated 3 times. The proportion of viable cells was quantified by the MTT assay and after background subtraction relative values compared to the mean of medium controls were calculated. Non-linear regression analyses applying the Hill slope were run in GraphPad 5.0 software.

The next test deals with Fibroblasts. In words: IC50 on non-cancerous cell cultures. Conditions: normal primary short-term cell culture.
The next test has as its system histone γH2AX-foci. In words: γH2AX foci analysis (DNA damage). Conditions: IC50 concentration, 24h incubation. An excerpt: ROS production may also lead to endoplasmatic reticulum stress-induced apoptosis. In general, many ruthenium(II) complexes with different ligands induce intracellular ROS [94, 95, 96, 97, 98, 99]. Moreover, the cytotoxic activity of Os(II) compounds can be inhibited by vitamin E co-treatment pointing to the contribution of ROS [88]. In addition to mitochondrial dysfunction, Ru(II) complexes may affect glycolysis or topoisomerase I/II, thus inducing necroptosis. Ru(II) compounds with modified pyrithione ligands were recently described to overcome platinum resistance in ovarian cancer cells by inducing cytostatic G1 arrest, TrxR inhibition, and cell membrane damage. […] Future studies may identify the specific target proteins enabling molecular docking studies and specific refinement of the organo-metal compound structure. Altogether, presented compounds may use some of these alternative modes of action as well, as we see efficient cell death but no cell cycle arrest induction by Ru3/Ru14. Furthermore, the ruthenium(II) core atom might be responsible for this effect because of the lack of anticancer behaviour of the ligand L14 (Supplementary Figure S8). To further confirm that Ru compounds use another mechanism of action, DNA damage analyses were conducted for Ru3 and Ru14 (Figure 8). […]

Some results are limits rather than exact numbers.

The term IC50 denotes the concentration that inhibits the measured activity by half. Higher therefore signals lower potency. Consider “[(η^6-p-cymene)Ru(1-(3-ethoxyphenyl)-3-(methylthio)-3-thioxo-prop-1-en-1-olate-O,S)] [Ru14]”, for which, in test [1], the “mean IC50 value on Cisplatin resistant cell lines compared with Cisplatin” value is “lower”. Also, the IC50 in the test on Fibroblasts was greater than 100 µM. The γH2AX-foci induction result in the test on histone γH2AX-foci is listed as “less γH2AX-foci as Cisplatin”.

Source of the values: article PMC9102668, “Highly Cytotoxic Osmium(II) Compounds and Their Ruthenium(II) Analogues Targeting Ovarian Carcinoma Cell Lines and Evading Cisplatin Resistance Mechanisms” (International Journal of Molecular Sciences, 2022).
